The text below walks through data of publication PMC4915074 (Nature communications, 2013).

The assay has as its system VEGF. The assay can be described thus: VEGF gene expression in THP1 cells by quantitative real-time PCR. In kind it is cell-based, human. Particulars: 10 ng/mL (1.66 nM), 2 h, vs vehicle. For orientation: Quantitative PCR measures a nucleic acid by following its amplification.

For the substance relaxin, the “increase in relative expression of VEGF mRNA” value is listed as 2.4 fold.
